The target of assay [1] is T1, porcine kidney trehalase (Sus scrofa, UniProt I3LIR5).
T1 construct: porcine kidney trehalase (purchased from Sigma-Aldrich); purchased Sigma-Aldrich; host or cells: porcine kidney
T1 sequence (I3LIR5 24-583): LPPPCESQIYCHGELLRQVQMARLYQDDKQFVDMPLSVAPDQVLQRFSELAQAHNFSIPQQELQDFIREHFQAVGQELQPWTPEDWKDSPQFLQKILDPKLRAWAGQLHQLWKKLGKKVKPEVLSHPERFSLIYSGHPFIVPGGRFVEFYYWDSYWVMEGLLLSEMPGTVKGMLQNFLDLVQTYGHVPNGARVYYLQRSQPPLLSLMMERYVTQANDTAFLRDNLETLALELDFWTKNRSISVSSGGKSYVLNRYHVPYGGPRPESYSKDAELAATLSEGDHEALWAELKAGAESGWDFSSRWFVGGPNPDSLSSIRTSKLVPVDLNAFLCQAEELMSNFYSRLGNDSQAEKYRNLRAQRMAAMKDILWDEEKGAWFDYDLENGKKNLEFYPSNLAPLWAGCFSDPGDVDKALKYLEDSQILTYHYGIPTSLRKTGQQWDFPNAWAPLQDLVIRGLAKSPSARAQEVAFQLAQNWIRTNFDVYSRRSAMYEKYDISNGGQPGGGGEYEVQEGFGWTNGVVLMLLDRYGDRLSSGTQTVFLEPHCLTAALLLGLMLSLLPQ
The assay can be described thus: Trehalase inhibition, coupled assay with glucose-6-phosphate dehydrogenase and hexokinase (dose-response). The settings on record: 2.5 mM trehalose (close to Km), 30 °C; read-out: IC50 towards porcine trehalase. Format: biochemical. As for the experimental part:
(§1) Compounds were tested for their inhibitory activity against insect trehalase of midge larvae of C. riparius, a good model for biochemical studies, and porcine kidney trehalase (purchased from Sigma-Aldrich, St. Louis, MO, USA) as the mammalian counterpart.
(§2) Trehalase activity was measured through a coupled assay with glucose-6-phosphate dehydrogenase and hexokinase according to Wegener at al. To examine the potential of each compound as a trehalase inhibitor, dose-response curves were established to determine the IC50 values. Experiments were performed at a fixed substrate concentration close to the Km value (0.5 mM for C. riparius and 2.5 mM for porcine trehalase), in the presence of increasing inhibitor concentrations.Initial rates as a function of inhibitor concentration were fitted to the following equation:(1) vi/v=1/1+([I]/IC50)^n where vi and v are the initial rate in the presence and in the absence of inhibitor, respectively, [I] is the inhibitor concentration, IC50 is the inhibitor concentration producing half-maximal inhibition, and n is the Hill coefficient.
(§3) All enzyme assays were performed in triplicates at 30 °C by using sample volumes varying from 5 to 20 μL in 1 mL test and using a Cary3 UV/Vis Spectrophotometer. Enzyme activities were analyzed by Cary Win UV application software for Windows XP.

Assay [2] deals with T1, porcine kidney trehalase. More on the design: method as in PMID 25407551. The settings on record: value taken from the literature; ref [7]; read-out: IC50 towards porcine trehalase; cited from earlier work.
Assay [3] concerns the target T2, C. riparius trehalase (Chironomus riparius, UniProt J7EJ73). The assay can be described thus: Trehalase inhibition, coupled assay with glucose-6-phosphate dehydrogenase and hexokinase (dose-response). It is filed as biochemical. The protocol:
as §1, §2, §3

Assay [4] deals with T2, C. riparius trehalase. In words: Inhibition kinetics at varying trehalose concentration (Lineweaver-Burk plot and replots). It is filed as biochemical. The settings on record: varying trehalose concentration at two inhibitor concentrations. The protocol: To evaluate the inhibitory pattern we performed kinetics measurements by varying the trehalose concentration, at two different concentrations of compounds 9α and 9β.
Kinetic experiments were performed using C. riparius trehalase, measuring enzymatic activity at different trehalose concentrations from 0.05 to 20 mM in the presence of fixed inhibitor concentrations (5–10 µM for the compound 9α and 0.5–1 µM for the compound 9β). Kinetic parameters were calculated using a multiparameter, iterative, non-linear regression program based on the Marquardt-Levenberg algorithm (Sigma Plot, Jandel, CA, USA). Data are given ± S.D. of three independent experiments.
as §3

Molecules are shown by their SMILES. Entries after “also recorded” stand apart in the source; their conditions may differ. Like-named read-outs stand apart in the source and are kept apart here.

T2 sequence (J7EJ73 entry or part of it): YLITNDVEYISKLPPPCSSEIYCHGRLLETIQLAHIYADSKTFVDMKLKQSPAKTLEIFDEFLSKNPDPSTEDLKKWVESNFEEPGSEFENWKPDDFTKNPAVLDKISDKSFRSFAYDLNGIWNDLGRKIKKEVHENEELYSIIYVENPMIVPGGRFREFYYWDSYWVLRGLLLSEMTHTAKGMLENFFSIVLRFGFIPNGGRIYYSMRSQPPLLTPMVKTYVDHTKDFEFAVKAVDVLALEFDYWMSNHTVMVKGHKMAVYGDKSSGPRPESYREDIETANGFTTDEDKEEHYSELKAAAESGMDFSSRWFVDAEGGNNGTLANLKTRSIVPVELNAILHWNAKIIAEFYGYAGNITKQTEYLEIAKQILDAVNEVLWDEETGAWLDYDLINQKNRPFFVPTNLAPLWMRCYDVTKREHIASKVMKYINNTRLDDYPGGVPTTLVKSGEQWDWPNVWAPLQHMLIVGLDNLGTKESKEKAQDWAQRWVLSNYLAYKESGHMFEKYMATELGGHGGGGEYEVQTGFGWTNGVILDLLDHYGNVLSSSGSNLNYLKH

For the compound `OC[C@@H]1[C@@H](O)[C@H](O)CN1CCOC1O[C@H](CO)[C@@H](O)[C@H](O)[C@H]1O` (stereo partly drawn) [9α,β], the half-maximal inhibitory concentration (IC50) (in general, the point on the concentration scale where inhibition reaches its midpoint) in assay [1] was 7.67 ± 3.91 µM. As to `OC[C@@H]1[C@@H](O)[C@H](O)[C@H]2C[C@@H](O[C@H]3O[C@H](CO)[C@@H](O)[C@H](O)[C@H]3O)CN12` [Compound 4, 7-deoxycasuarine glucoside], in assay [2], the IC50 was 0.479 ± 0.045 µM. For `OC[C@@H]1[C@@H](O)[C@H](O)[C@H]2[C@H](O)[C@H](O)CN21` [Compound 6, (-)-uniflorine A], in assay [2], the half-inhibitory concentration (IC50) was more than 1000 µM.

As for `OC[C@@H]1[C@@H](O)[C@H](O)[C@H]2C[C@H](O)CN12` [Compound 7, 7-deoxy-uniflorine A], the IC50 in assay [2] is more than 1000 µM. Turning to `OC[C@@H]1[C@@H](O)[C@H](O)[C@H]2C[C@H](O[C@H]3O[C@H](CO)[C@@H](O)[C@H](O)[C@H]3O)CN12` [Compound 8, (1R,2R,3R,6S,7aR)-1,2-dihydroxy-3-(hydroxymethyl)hexahydro-1H-pyrrolizin-6-yl-α-hexopyranoside], the “Inhibitory activity towards C. riparius trehalase (in words)” value in assay [3] is given as “active only in the μM range”. Also, the IC50 in assay [1] is 191 ± 34.1 µM. On to `OC[C@@H]1[C@@H](O)[C@H](O)CN1CCO[C@H]1O[C@H](CO)[C@@H](O)[C@H](O)[C@H]1O` [Compound 9α], for which the IC50 in assay [1] amounted to 27.6 ± 5.35 µM. The “Inhibitory pattern (inhibition type)” value in assay [4] is “pure competitive”.

For `OC[C@@H]1[C@@H](O)[C@H](O)CN1CCO[C@@H]1O[C@H](CO)[C@@H](O)[C@H](O)[C@H]1O` [Compound 9β], the half-inhibitory concentration (IC50) in assay [1] was found to be 5.84 ± 0.26 µM. Besides, the “Inhibitory pattern (inhibition type)” value in assay [4] is reported as “pure competitive”. With `OCC1OC(OCCCN2CC(O)C(O)C2CO)C(O)C(O)C1O` (stereo not drawn) [Compound 10], the “Inhibitory activity towards C. riparius trehalase (in words)” value in assay [3] is “loose completely their inhibitory properties; also recorded: completely inactive”. On the same count and under the same terms, the value for `OCC1OC(OCCCCN2CC(O)C(O)C2CO)C(O)C(O)C1O` (stereo not drawn) [Compound 11] was “loose completely their inhibitory properties; also recorded: completely inactive”.

(Values after PMC6017881, “Probing the Influence of Linker Length and Flexibility in the Design and Synthesis of New Trehalase Inhibitors” (Molecules : A Journal of Synthetic Chemistry and Natural …, 2018).)
